34 compounds from US5185338A, “Medicament for treating cerebral insufficiency diseases, novel 2-(1-piperazinyl)-4-phenylcycloalkanopyrimidine derivatives, and process for the production thereof” (Dainippon Pharmaceutical Co., Ltd., priority 1989, dated 1993) can be followed below.

Holding throughout (format): in vivo, mice (Std-ddY strain)
For assay [1], the system named is scopolamine-induced hypermotility. The assay can be described thus: Antagonistic effect on scopolamine-induced hypermotility. The note with it: Mus musculus, po, orally, scopolamine hydrobromide 1 mg/kg i.p., complete antagonism to motility level of non-dosed animals=100%, read-out: Inhibitory ratio (% antagonism of scopolamine-induced hypermotility). As to the method: Antagonistic effect on scopolamine-induced hypermotility:
A test compound was orally administered to each mouse, and 90 minutes after the administration, each one test animal was placed within a test cage (25×35×30 cm). After 30 minutes, scopolamine hydrobromide (1 mg/kg) was intraperitoneally administered to the mice and then the motility was measured with Animex activity meter for 30 minutes. The effect of test compounds was expressed as % antagonism (complete antagonism to the motility level of non-dosed animals=100%).

In assay [2] the test system is scopolamine-induced deficit of spontaneous alternation behavior. Description: Improving effect on scopolamine-induced deficit of spontaneous alternation behavior (T-maze). The note with it: scopolamine hydrobromide 1 mg/kg, non-dosed mice=100%. The text has this:
Improving effect on scopolamine-induced deficit of spontaneous alternation behavior:
A group of 15-25 male mice (Std-ddY strain, 22-28 g) was used for evaluating effect of the test compounds on scopolamine-induced deficit of spontaneous alternation in a T-maze, which is a known animal model of memory impairment due to hypofunction of the cholinergic nervous system. The T-maze used consists of a stem and two arms which are 25 cm long, 5 cm wide and 10 cm high. The first 10 cm of the stem and last 10 cm of each arm are divided by sliding doors into start and goal boxes.
A test compound and scopolamine hydrobromide (1 mg/kg) were intraperitoneally administered to each mouse, and after 30 minutes a test of spontaneous alternation task in the T-maze was continuously repeated for 8 trials. Commonly, naive mice alternate each (right and left) goal box in turn, but scopolamine-treated animals tend to enter the same goal box repeatedly. The effect of the test compounds was expressed as % improvement (complete improvement to the alternation level of non-dosed mice=100%).

Assay [3] concerns cycloheximide-induced amnesia of passive avoidance response. The assay can be described thus: Improving effect on cycloheximide-induced amnesia of passive avoidance response. The conditions noted are these: cycloheximide 60 mg/kg s.c., retention trial at 24 hours, non-dosed animals=100%. The text has this:
Improving effect on cycloheximide-induced amnesia of passive avoidance response:
Anti-amnesic effect of the test compounds was examined using mice given cycloheximide which is a known amnesia-inducing agent.
A group of 15-20 male mice (Std-ddY strain, 27-33 g) was subjected to training and retention trials for a passive avoidance task in a step-down apparatus (30×30×50 cm) with a grid floor and a wooden platform (4×4×4 cm) in a center of the floor. In the training trial, each mouse was first placed on the platform, and when the mouse stepped down on the grid floor, an electric shock (1 Hz, 0.5 sec, 60 VDC) was delivered to the feet for 15 seconds. Immediately after the training trial, cycloheximide (60 mg/kg, s.c.) and a test compound (i.p.) were administered. The retention trial was carried out 24 hours thereafter, and the time from placing again each mouse on the platform until stepping down on the grid floor (step-down latency) was measured. The step-down latency in the retention trial was markedly shortened by treatment of cycloheximide (amnesia). The effect of test compounds was assessed by % improvement (complete improvement to the latency level of non-dosed animals=100%).

Assay [4] has as its system brain serotonin metabolite, 5-hydroxyindole-3-acetic acid (5-HIAA). The assay can be described thus: Increasing effect on concentration of brain serotonin metabolite (5-HIAA). The conditions noted are these: Mus musculus, 2 h, two hours after treatment, 5-HIAA level of non-dosed animals=100%. The source says:
Increasing effect on concentration of brain serotonin metabolite:
A group of 5 male mice (Std-ddY strain, 25-30 g) was used for examining effect of the test compounds on concentration of a brain serotonin metabolite, 5-hydroxyindole-3-acetic acid (5-HIAA).
Mice were killed by decapitation two hours after the treatment with the test compounds. Brains were quickly taken out, homogenized in 1N formic acid-acetone solution, and centrifuged in a refrigerated ultracentrifuge. The supernatant was evaporated by blowing with N2 gas, and then, the residue was again dissolved in 0.01N acetic acid, and served for determining 5-HIAA concentration by high performance liquid chromatography with electrochemical detection. The effect of the test compounds on 5-HIAA concentration was shown as % of control (5-HIAA level of non-dosed animals=100%).

The test system of assay [5] is reserpine-induced hypothermia. The assay can be described thus: Anti-reserpine effect (reserpine-induced hypothermia). The note with it: 100 mg/kg orally; reserpine 5 mg/kg s.c.; rectal temperature at 4 hours; complete inhibition=100%. On the procedure:
A group of 5 male mice (Std-ddY strain, 22-25 g) was used for examining the antagonistic effect of the test compounds on reserpine-induced hypothermia, which is known as a screening method for the antidepressant drug.
Reserpine (5 mg/kg) was subcutaneously administered to the mice and further a test compound was orally administered thereto. Four hours after the administration, rectal temperature of the mice was measured. The effect of the test compounds was estimated by % inhibition (complete inhibition to the hypothermia by reserpine in non-dosed animals=100%).

As for `c1ccc(-c2nc(N3CCNCC3)nc3c2CCC3)cc1` [Ex. 3, 2-(1-Piperazinyl)-4-phenyl-6,7-dihydro-5H-cyclopentapyrimidine], the inhibition in vivo at 3 mg/kg in assay [1] worked out at 68%. Moreover, the “Improvement of scopolamine-induced deficit of spontaneous alternation” value in assay [2] (2.0 mg/kg i.p.) stood at 45.8%. For the same compound, the “Improvement of cycloheximide-induced amnesia (step-down latency)” value in assay [3] (0.5 mg/kg i.p.) came out at 34.4%; in assay [3] (10.0 mg/kg i.p.), 52.1%.
As to `CN1CCN(c2nc3c(c(-c4ccc(F)cc4)n2)CCC3)CC1` [Ex. 4], the inhibition in vivo at 10 mg/kg in assay [1] was determined as 66%. Moreover, the response vs control in vivo at 100 mg/kg in assay [4] was 122%.
With `CCN1CCN(c2nc3c(c(-c4ccc(F)cc4)n2)CCC3)CC1` [Ex. 5], the inhibition in vivo at 30 mg/kg in assay [1] is 81.4%. The response vs control in vivo at 100 mg/kg in assay [4] worked out at 161%.
In the case of `OCCN1CCN(c2nc3c(c(-c4ccc(F)cc4)n2)CCC3)CC1` [Ex. 6], the inhibition in vivo at 30 mg/kg in assay [1] was 64.5%. In addition, the response vs control in vivo at 100 mg/kg in assay [4] worked out at 119%.
For the compound `CCN1CCN(c2nc3c(c(-c4ccc(F)cc4)n2)CCCCC3)CC1` [Ex. 8], the inhibition in vivo at 10 mg/kg in assay [1] was determined as 80%.
In the case of `Fc1ccc(-c2nc(N3CCN(C4CCCC4)CC3)nc3c2CCC3)cc1` [Ex. 12], the inhibition in vivo at 30 mg/kg in assay [1] is 80.9%.
On to `CCCN1CCN(c2nc3c(c(-c4ccc(F)cc4)n2)CCC3)CC1` [Ex. 13, 2-(4-n-propyl-1-piperazinyl)-4-(4-fluorophenyl)-6,7-dihydro-5H-cyclopentapyrimidine], for which, in assay [1], the inhibition in vivo at 30 mg/kg is 97.6%.
Regarding `Fc1ccc(-c2nc(N3CCNCC3)nc3c2CCCC3)cc1` [Ex. 14, 2-(1-piperazinyl)-4-(4-fluoro-phenyl)-5,6,7,8-tetrahydroquinazoline], the inhibition in vivo at 3 mg/kg in assay [1] was found to be 55.2%. Moreover, the “Improvement of scopolamine-induced deficit of spontaneous alternation” value in assay [2] (1.0 mg/kg i.p.) turned out to be 40.7%. Besides, the “Improvement of cycloheximide-induced amnesia (step-down latency)” value in assay [3] (2.0 mg/kg i.p.) is 52.5%. In addition, the response vs control in vivo at 100 mg/kg in assay [4] is 154%. For the same compound, the “Inhibitory ratio (% inhibition of reserpine-induced hypothermia)” value in assay [5] is reported as 100%.
Take `CCN1CCN(c2nc3c(c(-c4ccccc4)n2)CCCCC3)CC1` [Ex. 16]: the inhibition in vivo at 30 mg/kg in assay [1] was determined as 54.2%.
Regarding `CCN1CCN(c2nc3c(c(-c4ccccc4)n2)CCCCCC3)CC1` [Ex. 17], the inhibition in vivo at 30 mg/kg in assay [1] is 72.5%.
For `c1ccc(CN2CCN(c3nc4c(c(-c5ccccc5)n3)CCC4)CC2)cc1` [Ex. 18], the inhibition in vivo at 30 mg/kg in assay [1] came to 54.4%.
Take `Fc1ccc(-c2nc(N3CCN(Cc4ccccc4)CC3)nc3c2CCC3)cc1` [Ex. 19]: the inhibition in vivo at 3 mg/kg in assay [1] came to 64.4%.
On to `Fc1ccc(-c2nc(N3CCN(c4ccccc4)CC3)nc3c2CCC3)cc1` [Ex. 20], for which the inhibition in vivo at 30 mg/kg in assay [1] came to 35.2%.
For `CN1CCN(c2nc3c(c(-c4cccc(F)c4)n2)CCC3)CC1` [Ex. 21], the inhibition in vivo at 30 mg/kg in assay [1] turned out to be 70.5%.
On to `COc1ccc(-c2nc(N3CCN(C)CC3)nc3c2CCC3)cc1` [Ex. 23], for which the inhibition in vivo at 30 mg/kg in assay [1] is 52.4%.
On the same count and under the same terms, then `CCN1CCN(c2nc3c(c(-c4ccc(OC)cc4)n2)CCC3)CC1` [Ex. 24], with 72.5%.
As for `CN1CCN(c2nc3c(c(-c4ccccc4)n2)CCCC3)CC1` [Ex. 25], the inhibition in vivo at 10 mg/kg in assay [1] was 67.2%. The response vs control in vivo at 100 mg/kg in assay [4] was determined as 142%. For the same compound, the “Inhibitory ratio (% inhibition of reserpine-induced hypothermia)” value in assay [5] worked out at 63%.
Regarding `CCN1CCN(c2nc3c(c(-c4ccccc4)n2)CCCC3)CC1` [Ex. 26], the inhibition in vivo at 30 mg/kg in assay [1] came out at 59.6%. The “Inhibitory ratio (% inhibition of reserpine-induced hypothermia)” value in assay [5] came out at 100%.
As to `OCCN1CCN(c2nc3c(c(-c4ccccc4)n2)CCCC3)CC1` [Ex. 27], the inhibition in vivo at 30 mg/kg in assay [1] turned out to be 42%. In assay [4], the response vs control in vivo at 100 mg/kg was 131%. In assay [5], the “Inhibitory ratio (% inhibition of reserpine-induced hypothermia)” value was 46%.
Turning to `CCN1CCN(c2nc3c(c(-c4ccc(F)cc4)n2)CCCC3)CC1` [Ex. 29], the inhibition in vivo at 30 mg/kg in assay [1] is 59.1%. For the same compound, the response vs control in vivo at 100 mg/kg in assay [4] came to 149%.
Regarding `OCCN1CCN(c2nc3c(c(-c4ccc(F)cc4)n2)CCCC3)CC1` [Ex. 30], in assay [1], the inhibition in vivo at 30 mg/kg is 75.7%. Also, in assay [4], the response vs control in vivo at 100 mg/kg was found to be 137%. For the same compound, in assay [5], the “Inhibitory ratio (% inhibition of reserpine-induced hypothermia)” value is 67%.
With `Fc1ccc(-c2nc(N3CCN(Cc4ccccc4)CC3)nc3c2CCCC3)cc1` [Ex. 31], in assay [1], the inhibition in vivo at 10 mg/kg worked out at 61.1%.
`CN1CCN(c2nc3c(c(-c4ccc(Cl)cc4)n2)CCCC3)CC1` [Ex. 32]: the inhibition in vivo at 30 mg/kg in assay [1] was 62.6%.
With `CCN1CCN(c2nc3c(c(-c4ccc(Cl)cc4)n2)CCCC3)CC1` [Ex. 33], the inhibition in vivo at 30 mg/kg in assay [1] came to 42.3%.
In the case of `OCCN1CCN(c2nc3c(c(-c4ccc(Cl)cc4)n2)CCCC3)CC1` [Ex. 34], the inhibition in vivo at 30 mg/kg in assay [1] was 50.2%.
Still for that read-out and setting: then `c1ccc(CN2CCN(c3nc4c(c(-c5ccccc5)n3)CCCCC4)CC2)cc1` [Ex. 37], with 62.9%; and `Fc1ccc(-c2nc(N3CCN(Cc4ccccc4)CC3)nc3c2CCCCC3)cc1` [Ex. 38], with 81.6%.
Regarding `Fc1ccc(-c2nc(N3CCN(c4ccccn4)CC3)nc3c2CCC3)cc1` [Ex. 39], in assay [1], the inhibition in vivo at 30 mg/kg amounted to 55.6%.
Regarding `CC1CCc2nc(N3CCNCC3)nc(-c3ccc(F)cc3)c2C1` (stereo not shown) [Ex. 40], in assay [1], the inhibition in vivo at 30 mg/kg was found to be 64.5%.
On to `CC1CCc2nc(N3CCN(C)CC3)nc(-c3ccc(F)cc3)c2C1` (stereo not shown) [Ex. 41], for which the inhibition in vivo at 30 mg/kg in assay [1] was 60.8%.
Turning to `CCN1CCN(c2nc3c(c(-c4ccc(F)cc4)n2)CC(C)CC3)CC1` (stereo not shown) [Ex. 42], in assay [1], the inhibition in vivo at 30 mg/kg turned out to be 71%.
Consider `CC1CCc2nc(N3CCN(CCO)CC3)nc(-c3ccc(F)cc3)c2C1` (stereo not shown) [Ex. 43], for which the inhibition in vivo at 30 mg/kg in assay [1] was 64.2%.
As for `O=C(c1ccco1)N1CCN(c2nc3c(c(-c4ccc(F)cc4)n2)CCC3)CC1` [Ex. 45, 2-[4-(2-furoyl)-1-piperazinyl]-4-(4-fluorophenyl)-6,7-dihydro-5H-cyclopentapyrimidine], the inhibition in vivo at 30 mg/kg in assay [1] stood at 60.4%.
Same read-out and setting: to `O=C(CCCN1CCN(c2nc3c(c(-c4ccc(F)cc4)n2)CCC3)CC1)c1ccc(F)cc1` [Ex. 46, 2-[4-[3-(4-fluorobenzoyl)propyl]-1-piperazinyl]-4-(4-fluorophenyl)-6,7-dihydro-5H-cyclopentapyrimidine] belongs 100%.
